Data set [1] concerns CD-1 mice. In words: Acute toxicity, subcutaneous administration. The format is in vivo. The following applies: for LD50: subcutaneous. From the text: The acute toxicity of SkQ1 solution administered by subcutaneous administration was studied in SPF male and female CD-1 mice.
For data set [2], the system named is mice. In words: Cold shock (90 minutes at −20° C.), survival. The class given is in vivo. On the procedure:
(§1) SkQ1 protected mice in three different mouse models of severe critical conditions. The first critical condition was induced by injection of a suspension of isolated liver mitochondria into the mouse tail vein. The second critical condition was induced by the sharp cold shock of placing mice for 90 minutes in a −20° C. environment. The third condition was induced by administration of a toxic concentration the of lipophilic cation C12 TPP, whose formula is shown below
In the next experiment, critical condition was caused by a completely different stress, namely by cold shock resulting from incubating mice for 1.5 hours at −20° C. It can be seen in FIG. 8 that cold shock led to dramatic increase of mortality between days 5 and 8, resulting in a survival rate of 40%.
(§2) In the next series of experiments, it was investigated whether animals can be rescued by SkQ1 treatment administered simultaneously with the challenge or even after the challenge.

Data set [3] has as its system H5N1 influenza virus (strain chicken/Kurgan/5/2005). The class given is in vivo, balb\c mice.
Data set [4] can be described thus: SkQ1 bioavailability study, LCMS/MS blood concentration after i/v, i/p, s/c injection. The format is in vivo. The note with it: Wistar rats, 2 mg\kg. As to the method: The bioavailability of SkQ1 was determined after using different methods of administration. SPF category Wistar rats were used. SkQ1 concentration in blood samples was measured using an LCMS/MS method SkQ1 was administered at 2 mg\kg, and blood samples were taken at the indicated time points. Administration was by intravenous injection (FIG. 1A), intraperitoneal injection (FIG. 1B), or subcutaneous injection (FIG. 1C). Total SkQ1 dose was calculated as area under the curve (AUC) as shown at left of FIG. 1D. SkQ1 bioavailability was normalized to that of i/v administration and is shown at the right side of FIG. 1D.

Data set [5] has as its system human vascular endothelial cells. Kind of data set: VE-cadherin study of endothelial cell-to-cell contacts after SIRS/sepsis patient serum (western blot, fluorescence microscopy). The format is cell-based. On the procedure:
The mitochondrially targeted antioxidants disclosed herein can prevent deconstruction of cell-to-cell contacts between human vascular endothelial cells in culture when these cells are treated with blood serum samples from patients with SIRS or sepsis. Results of a VE-cadherin western blot are presented on FIG. 3, wherein a cell culture of human endothelial cells is pretreated with different dosages of SkQ1, then exposed to serum from patients diagnosed with sepsis. […] In FIG. 4, blood samples are taken from patients with diagnosed SIRS, with the patients age 18-75 years. A cell culture of human endothelial cells is pretreated with different dosages of SkQ1, then treated with 5-10% serum from the SIRS blood samples. At the top of FIG. 4, the VE-cadherin (fluorescence microscopy) c resembles the VE-cadherin at the bottom of FIG. 4 (SIRS serum+200 nM SkQ1). Actin and nucleus visualizations in FIG. 4 correspond with VE-cadherin observations.
Blood samples were taken from patients ages 18-75 years with diagnosed SIRS. Cell cultures of human endothelial cells were pretreated with different amounts of SkQ1, after which the cultures were treated with 5-10% serum from the SIRS blood samples. A one hour VE-cadherin study was performed by fluorescent microscopy followed by western-blot analysis. Results of the experiment are presented on FIG. 3 (western blot) and FIG. 4 (microscopy).
For orientation: Immunoblotting shows a protein as a band on a membrane.

A short description of data set [6]: SkQ1 blood concentration with subcutaneous slow-release infusion pumps. The class given is in vivo. The following applies: Wistar rats, slow-release infusion pumps introduced subcutaneously. As to the method:
In the next experiment SkQ1 presence in the blood was prolonged by using slow-release infusion pumps introduced subcutaneously into Wistar rats. Blood samples from these animals were taken at timepoints indicated on FIG. 2, and SkQ1 concentration was measured as described above. […] This experiment also models administration of SkQ1 using intravenous infusion.

Data set [7] concerns CD-1 mice. Kind of data set: 28-day chronic toxicity with 14-day recovery, subcutaneous. The format is in vivo. On the procedure: SkQ1 solution 28-day chronic toxicity with 14-day recovery was studied in SPF male and female CD-1 mice at SkQ1 dosage of 0.6, 2.5, and 10 mg/kg administered subcutaneously, once daily. At 2.5 mg SkQ1/kg no adverse effects were identified (NOAEL) either at the end of the dosing or at the end of recovery. […] Peritonitis stemmed from the local ulcerative action of the formulation, while the adverse reactions of systems/organs were apparently the consequences of peritonitis.

The subject of data set [8] is mice. In words: Shock by injection of isolated liver mitochondria into the tail vein, survival. The note with it: for Mortality after mitochondria injection: C12 TPP instead of SkQ1. The format is in vivo. As to the method:
as §1
The injection of mitochondria had no effect on survival during the first day (100% of the animals survived). However only 60% of animals survived the next two days. This survival rate persisted for at least 16 days. […] In this experiment a strong reduction in weight was clearly observed in the first 3 days after injection of mitochondria. Then the surviving animals began to recover—mortality disappeared, and body weight began to increase. In a control experiment, C12 TPP was used instead of SkQ1. In the case of C12 TPP, 20% of mice died in the first half day after the injection of mitochondria, and in two days the mortality had grown to 80%.
as §2

The subject of another data set is IL-6. Kind of data set: IL-6 concentration in blood after shock. The class given is in vivo, mice. The note with it: intravenous injection of liver mitochondria, i/p SkQ1.
The next data set has as its system TNFα. Kind of data set: TNFα concentration in blood after shock. The format is in vivo, mice. The note with it: intravenous injection of liver mitochondria, i/p SkQ1.
In data set [9] the test system is mice. Kind of data set: Lethal shock by toxic dose of C12 TPP, survival. The format is in vivo. On the procedure:
as §1
In the next experiment a critical condition in mice was induced by i/v injection of a toxic dose of C12 TPP (34 μmole/kg). Considering the membrane-penetrating and membrane-disruptive properties of C12 TPP, it can be expected that the lethal effect of i/v injection of C12 TPP occurs due to disruption of cells in the vascular system, including vascular endothelial cells.
This set of experiments was continued using the lethal shock was caused by toxic concentrations of C12 TPP. Two dosages of C12 TPP were used: 34 μmol/kg C12 TPP (FIG. 12) or 42 μmol/kg C12 TPP (FIG. 13). In the data shown in FIG. 12, SkQ1 (1.5 μmol/kg dosage) was administered to each of the mice both at 4.5 hours before C12 TPP and 0.5 hours after C12 TPP administration. Without SkQ1, about 80% of mice died within 32 hours after the injection of C12 TPP; with SkQ1 the death rate was reduced to 40%. In the experiment described in FIG. 13, the amount of C12 TPP was increased to 42 μmol/kg. […] In the experimental group, SkQ1 was administered once within 1 hour after C12 TPP treatment. In the SkQ1 treatment group ⅓ of the animals survived (FIG. 13).

[10] abbreviates: SkQ1 injected one minute after shock stimulus.
Where [11] appears, read: H5N1-infected mice, i/p SkQ1 from day 2.

In the case of SkQ1, in the data set with CD-1 mice [1] (14 days after administration of toxic doses), the “Findings in mice surviving toxic doses” value was “signs of hepato- and nephrotoxicity”. Moreover, in the data set on CD-1 mice [1] (first hours after subcutaneous administration), the “Cause of lethal effect of high doses” value is on record as “respiratory arrest”. The LD50 in the data set on CD-1 mice [1] (female CD-1 mice) is given as 26.8 (23-31) mg SkQ1/kg. Moreover, the LD50 with CD-1 mice [1] (male CD-1 mice) is listed as 31 (20.5-37.2) mg SkQ1/kg. The “Mortality from cold shock” value in the data set with mice [2] (setting [10]) is given as “significantly reduced”. In the data set with mice [2] (premedication and after-shock treatment), the “Death of animals after cold shock” value is reported as “completely prevented”. In [3] (setting [11]), the “Death caused by influenza virus infection” value is “delayed” and the “Development of bad health condition” value is listed as “delayed”. Further, the “Protection against critical condition” value in [3] (intraperitoneal SkQ1 1000 nmoles/kg and 3000 nmoles/kg) is “protects against the critical condition”. In data set [4] (i/p, AUC normalized to i/v), the “SkQ1 bioavailability for intraperitoneal administration, of the bioavailability after intravenous administration” value was 35%. Further, the “Persistence of SkQ1 in blood after injection” value in data set [4] (i/v, i/p or s/c injection) was “rapidly disappears from the blood”. In data set [4] (subcutaneous, AUC normalized to i/v), the “SkQ1 bioavailability for subcutaneous administration, of the bioavailability after intravenous administration” value is reported as 44%. Moreover, in data set [5] (200 nM SkQ1 and sepsis patient serum), the “VE-cadherin western blot intensity versus control” value was “about equal intensity to the control”. Moreover, in [5] (SIRS serum + 200 nM SkQ1), the “VE-cadherin fluorescence microscopy versus control” value is listed as “resembles”. In data set [5] (cells treated with serum from patients with SIRS or sepsis, SkQ1 pretreatment), the “Deconstruction of cell-to-cell contacts between endothelial cells” value was “prevented”. In data set [6], the “SkQ1 concentration in the blood with slow release” value is listed as “can be stabilized”. For the same molecule, in the data set on CD-1 mice [7] (10 mg/kg subcutaneous once daily, 28 days), the “Animals died (due to peritonitis)” value was “≈ 15%”. In the data set with CD-1 mice [7] (28 days subcutaneous once daily, 14-day recovery), the “NOAEL (no adverse effects identified)” value was 2.5 mg SkQ1/kg. The “Mortality from injection of mitochondria” value in the data set on mice [8] (setting [10]) is “significantly reduced”. Also, the “Survival after mitochondria injection” value in the data set on mice [8] (treatment five days before and five days after mitochondria injection) is reported as 90%. In addition, in the data set with IL-6, the “Increase of blood concentration of IL-6” value is reported as “almost completely suppressed”. Also, the “Increase of blood concentration of TNFα” value with TNFα is reported as “almost completely suppressed”. The “Effect on mortality caused by C12 TPP” value with mice [9] (34 μmol/kg C12 TPP, SkQ1 pretreatment) was “prevented”. Also, the “Death rate after C12 TPP with SkQ1” value with mice [9] (34 μmol/kg C12 TPP, SkQ1 1.5 μmol/kg 4.5 hours before and 0.5 hours after) stood at 40%. Moreover, the “Fraction of animals survived” value with mice [9] (42 μmol/kg C12 TPP, SkQ1 once within 1 hour after C12 TPP) is “⅓”.
`CCCCCCCCCCCC[P+](c1ccccc1)(c1ccccc1)c1ccccc1` [C12 TPP, reference compound]: the “Mortality after cold shock” value in the data set on mice [2] (premedication and treatment, by the sixth day) is given as 100%. Further, the results for the “Mortality after mitochondria injection” value in the data set with mice [8] (first half day after injection) and in the data set with mice [8] (in two days) were 20% and 80%, respectively. In addition, the “Mice died after C12 TPP” value with mice [9] (34 μmol/kg C12 TPP without SkQ1, within 32 hours) is reported as “about 80%”. Further, the “Mortality caused by C12 TPP” value with mice [9] (34 μmol/kg i/v, within 1 day) is 90%. Besides, the “Death after C12 TPP” value in the data set on mice [9] (42 μmol/kg C12 TPP, control group, within 1.5 hours) is “all 12 animals died”.

The values above are taken from patent US20230181604A1, “Use of Mitochondria-Targeted Antioxidants to Treat Severe Inflammatory Conditions” (Mitotech S.A., priority 2020, published 2023).
